Data reported in paper PMC8043927, “Mycelial culture extracts of selected wood-decay mushrooms as a source of skin-protecting factors” (Biotechnology Letters, 2021).

Target: T1, hyaluronidase
T1 construct: gene SPAM1; bovine testicular enzyme is the usual preparation
Assay: turbidimetric assay with CTAB, […] nm
Assay type: biochemical
Conditions: hyaluronic acid substrate, acetate buffer pH 4.5, 37 °C, 45 min

Inhibition of hyaluronidase activity / Positive control: 509.79 µg/mL
SMILES: O=c1c(O)c(-c2ccc(O)c(O)c2)oc2cc(O)cc(O)c12 [quercetin (dihydrate)]
